This passage reports EC50 results from patent US10233195B2, “Anti-fibrotic pyridinones” (InterMune, Inc., priority 2014, dated 2019).

Structures are written as SMILES.

The test concerns TGF-b induced Endothelin-1 production. As to the kind of experiment: ET-1 assay: inhibitory effect on TGF-b induced endothelin-1 production. Format: cell-based. The note with it: Homo sapiens, Fibroblast; fibroblasts, stimulant (TGFb, serum, LPA etc), ET-1 in media by ELISA, 4-parameter fit. In short, it runs like this:
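Fibroblasts (primary human lung/dermal, HFL-1, 3T3) serum-starved 0-48 h, preincubated ~30 min with compound, then stimulated (TGFb, serum or LPA) for 16-48 h. Secreted ET-1 measured by ELISA; EC50 from 4-parameter logistic fit, with CC50 from ATPlite in the same wells.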
Background: ELISA stands for enzyme-linked immunosorbent assay.
What is called EC50 is the midpoint of the concentration-response curve. The low end stands for higher potency in that assay, the high end for lower potency in that assay. `Cn1cc(-c2cn(-c3ccc(OC(F)(F)F)cc3)c(=O)cc2NCc2ccc(C#N)cc2)cn1` [Compound 526] came in with a concentration for a half-maximal effect (EC50) of more than 200 µM.

Take `Cn1cc(-c2cn(-c3ccc(OC(F)(F)F)cc3)c(=O)cc2NCc2ccc(C#N)cc2F)cn1` [Compound 527]: the 50% effective concentration (EC50) was less than 50 µM.

Molecule `CCOc1ccc(CNc2cc(=O)n(-c3ccc(OC(F)(F)F)cc3)cc2-c2cnn(C)c2)c(F)c1` [Compound 528] came in with a 50% effective concentration (EC50) of less than 50 µM.

Regarding `Cn1cc(-c2cn(-c3ccc(OC(F)(F)F)cc3)c(=O)cc2NCc2ncccn2)cn1` [Compound 529], the concentration for a half-maximal effect (EC50) is more than 200 µM.

`CCOc1ccc(CNc2cc(=O)n(-c3ccc(OC(F)(F)F)cc3)cc2-c2cnn(C)c2)cc1` [Compound 530] returned an EC50 of less than 50 µM.

In the case of `Cn1cc(-c2cn(-c3ccc(F)cc3)c(=O)cc2Oc2ccccc2)cn1` [Compound 532], the 50% effective concentration (EC50) was less than 50 µM.

In turn, `COCCOc1ccc(Oc2cc(=O)n(-c3ccc(OC(F)(F)F)cc3)cc2-c2cnn(C)c2)cc1` [Compound 533] showed a half-maximal effective concentration (EC50) of 50 to 200 µM.

As for `Cn1cc(-c2cn(-c3ccc(Cl)cc3)c(=O)cc2Oc2ccccc2)cn1` [Compound 534], the EC50 was less than 50 µM.

For the molecule `CC(=O)Nc1cccc(-n2cc(-c3ccc(F)cc3)c(Oc3ccccc3)cc2=O)c1` [Compound 536], the EC50 was less than 50 µM.

Molecule `Cn1cc(-c2cn(-c3cccc(NC(N)=O)c3)c(=O)cc2Oc2ccccc2)cn1` [Compound 537] registered a concentration for a half-maximal effect (EC50) of less than 50 µM.

Molecule `COCCOc1ccc(-n2cc(-c3cnn(C)c3)c(Oc3ccccc3)cc2=O)cc1` [Compound 540] gave an EC50 of less than 50 µM.

With `CCOc1ccc(-n2cc(-c3ccc(F)cc3)c(Cl)cc2=O)c(C)c1` [Compound 541], the EC50 was more than 200 µM.

Take `Cn1cc(-c2cn(-c3ccc(O)cc3)c(=O)cc2Oc2ccccc2)cn1` [Compound 545]: the EC50 is more than 200 µM.

In the case of `O=c1cc(NCc2ncccn2)ccn1-c1ccc(OC(F)(F)F)cc1` [Compound 546], the EC50 was more than 200 µM.

`CCOc1ccc(-n2cc(-c3ccc4scnc4c3)c(C)cc2=O)c(C)c1` [Compound 552] yielded an EC50 of more than 200 µM.

Consider `CCn1c(=O)oc2ccc(-c3cn(-c4ccc(OC(F)(F)F)cc4)c(=O)cc3C)cc21` [Compound 554], for which the EC50 is more than 200 µM.

The molecule `Cc1cc(=O)n(-c2ccc(OC(F)(F)F)cc2)cc1-c1cccc2[nH]c(=O)oc12` [Compound 555] yielded a half-maximal effective concentration (EC50) of more than 200 µM.

Regarding `CCn1c(=O)oc2c(-c3cn(-c4ccc(OC(F)(F)F)cc4)c(=O)cc3C)cccc21` [Compound 556], the EC50 was more than 200 µM.

In turn, `Cc1cc(=O)n(-c2ccc(OC(F)(F)F)cc2)cc1-c1ccc2c(c1)oc(=O)n2CCO` [Compound 558] returned a concentration for a half-maximal effect (EC50) of 50 to 200 µM.

The molecule `Cc1cc(=O)n(-c2ccc(F)c(NC(N)=O)c2)cc1-c1ccc(F)cc1` [Compound 559] returned an EC50 of less than 50 µM.

The molecule `Cc1cc(=O)n(-c2ccc(OC(F)(F)F)cc2)cc1-c1ccc2c(c1)OCC(=O)N2CCO` [Compound 566] gave an EC50 of more than 200 µM.

The molecule `Cc1nc2c(=O)n(-c3ccc(OC(F)(F)F)cc3)cc(-c3ccc(F)cc3)c2o1` [Compound 568] gave an EC50 of more than 200 µM.

In the case of `N#Cc1ccc(-n2cc(-c3cn[nH]c3)c3nccnc3c2=O)cc1` [Compound 573], the EC50 is more than 200 µM.

In the case of `O=c1c2nccnc2c(-c2cnn(CCO)c2)cn1-c1ccc(OC(F)(F)F)cc1` [Compound 577], the EC50 fell in the range of 50 to 200 µM.

For `O=c1c2cccnc2c(-c2cn[nH]c2)cn1-c1ccc(OC(F)(F)F)cc1` [Compound 579], the concentration for a half-maximal effect (EC50) is more than 200 µM.

`CCOc1ccc(-n2cc(-c3cn[nH]c3)c3ncccc3c2=O)c(C)c1` [Compound 580]: the concentration giving a half-maximal response (EC50) was less than 50 µM.

Molecule `N#Cc1ccc(-n2cc(-c3cn[nH]c3)c3ncccc3c2=O)cc1` [Compound 581] displayed an EC50 of more than 200 µM.

Take `O=c1c2scnc2c(-c2cn[nH]c2)cn1-c1ccc(OC(F)(F)F)cc1` [Compound 582]: the EC50 is less than 50 µM.

The molecule `Cc1nc2c(-c3cnn(Cc4ccccc4)c3)cn(-c3ccc(OC(F)(F)F)cc3)c(=O)c2s1` [Compound 586] returned a 50% effective concentration (EC50) of less than 50 µM.

With `Cc1nc2c(-c3cn[nH]c3)cn(-c3ccc(OC(F)(F)F)cc3)c(=O)c2s1` [Compound 587], the EC50 was less than 50 µM.

The molecule `CCn1ccc2c(-c3cn[nH]c3)cn(-c3ccc(OC(F)(F)F)cc3)c(=O)c21` [Compound 593] showed an EC50 of less than 50 µM.

The molecule `Cn1cc(-c2cn(-c3ccc(OC(F)(F)F)cc3)c(=O)c3c2ccn3Cc2ccccc2)cn1` [Compound 596] displayed an EC50 of less than 50 µM.

For `Cn1cc(-c2cn(-c3ccc(C#N)cc3)c(=O)c3c2ccn3C)cn1` [Compound 597], the concentration for a half-maximal effect (EC50) was more than 200 µM.

`Cn1ccc2c(-c3cn[nH]c3)cn(-c3ccc(Cl)cc3)c(=O)c21` [Compound 598] registered an EC50 of less than 50 µM.

Turning to `Cn1cc(-c2cn(-c3ccc(Cl)cc3)c(=O)c3c2ccn3C)cn1` [Compound 599], the 50% effective concentration (EC50) was less than 50 µM.

`N#Cc1ccc(-n2cc(-c3cn[nH]c3)c3cc[nH]c3c2=O)cc1` [Compound 608]: the half-maximal effective concentration (EC50) was in the range of 50 to 200 µM.

`CCn1ccc2c(-c3cnn(C)c3)c[nH]c(=O)c21` [Compound 611] showed an EC50 of less than 50 µM.

Regarding `Cn1cc(-c2c[nH]c(=O)c3[nH]ccc23)cn1` [Compound 612], the EC50 was less than 50 µM.

Regarding `Cn1cc(-c2cn(-c3ccc(OC(F)(F)F)cc3)c(=O)c3c2ccn3CCO)cn1` [Compound 614], the EC50 was less than 50 µM.

Molecule `CCn1nnc2c(=O)[nH]cc(-c3cnn(C)c3)c21` [Compound 622] showed a concentration for a half-maximal effect (EC50) of more than 200 µM.

The molecule `Cn1cc(-c2c[nH]c(=O)c3[nH]nnc23)cn1` [Compound 623] showed an EC50 of more than 200 µM.

Consider `Cc1cc(=O)n(-c2cccc(NC(N)=O)c2)cc1-c1cnn(C)c1` [Compound 628], for which the EC50 was less than 50 µM.

Turning to `CCn1nnc2c(-c3cn[nH]c3)cn(-c3ccc(OC(F)(F)F)cc3)c(=O)c21` [Compound 634], the concentration for a half-maximal effect (EC50) was less than 50 µM.

For the molecule `O=c1c(-c2ccc(F)cc2)c(-c2ccc(OC(F)(F)F)cc2)c1=O` [Compound 666], the concentration for a half-maximal effect (EC50) was less than 50 µM.

As for `CCOc1ccc(-c2c(-c3ccc(F)cc3)c(=O)c2=O)c(C)c1` [Compound 667], the EC50 was less than 50 µM.

Turning to `CCn1cnc2c(-c3cn[nH]c3)cn(-c3ccc(OC(F)(F)F)cc3)c(=O)c21` [Compound 669], the 50% effective concentration (EC50) is less than 50 µM.

`CCn1cc(-c2cn(-c3ccc(OC(F)(F)F)cc3)c(=O)c3c2ncn3CC)cn1` [Compound 670] returned an EC50 of less than 50 µM.

The molecule `CCn1cnc2c(-c3cnn(C(C)C)c3)cn(-c3ccc(OC(F)(F)F)cc3)c(=O)c21` [Compound 671] came in with an EC50 of less than 50 µM.

`O=c1c2[nH]cnc2c(-c2cn[nH]c2)cn1-c1ccc(OC(F)(F)F)cc1` [Compound 672] yielded an EC50 of less than 50 µM.

Turning to `CC(C)n1cc(-c2cn(-c3ccc(OC(F)(F)F)cc3)c(=O)c3c2ncn3C)cn1` [Compound 673], the concentration giving a half-maximal response (EC50) was less than 50 µM.

Molecule `Cc1nc2c(=O)n(-c3ccc(OC(F)(F)F)cc3)cc(-c3cnn(C)c3)c2n1C` [Compound 674] came in with a half-maximal effective concentration (EC50) of 50 to 200 µM.

As for `Cc1nc2c(=O)n(-c3ccc(OC(F)(F)F)cc3)cc(-c3cn[nH]c3)c2n1C` [Compound 675], the EC50 was less than 50 µM.

In turn, `CC(C)n1nnc2c(-c3cnn(C)c3)cn(-c3ccc(OC(F)(F)F)cc3)c(=O)c21` [Compound 676] had an EC50 of less than 50 µM.

The molecule `O=c1c2[nH]nnc2c(-c2cn[nH]c2)cn1-c1ccc(OC(F)(F)F)cc1` [Compound 678] yielded an EC50 of 50 to 200 µM.
